From article PMC4979471 (Cell Death Discovery, 2015)
Read-outs that look alike come from different tables or passages of the source.

Assays:
Assay in all cases: Kinase selectivity, P33-radiolabeled assay
Type in all cases: biochemical
Conditions in all cases: 10 μM ATP
[1] = target: T1, LKB1 (Homo sapiens, UniProt Q15831)
T1 construct: purchased Reaction Biology Corp
T1 sequence (Q15831 1-433): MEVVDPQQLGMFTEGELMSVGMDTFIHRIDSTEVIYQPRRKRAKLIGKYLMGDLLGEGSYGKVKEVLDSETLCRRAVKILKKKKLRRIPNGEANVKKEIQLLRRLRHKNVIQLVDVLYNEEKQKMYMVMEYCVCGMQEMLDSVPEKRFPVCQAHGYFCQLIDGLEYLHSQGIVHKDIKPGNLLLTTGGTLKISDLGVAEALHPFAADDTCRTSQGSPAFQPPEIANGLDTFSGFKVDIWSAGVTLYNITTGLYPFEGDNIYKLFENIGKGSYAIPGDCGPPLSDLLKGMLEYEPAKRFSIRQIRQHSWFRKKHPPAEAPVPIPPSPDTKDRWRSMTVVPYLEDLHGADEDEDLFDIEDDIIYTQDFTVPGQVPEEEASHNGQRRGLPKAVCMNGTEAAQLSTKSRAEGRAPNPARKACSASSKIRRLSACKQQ
T1 sequence (Q7RTN6 1-431 partner): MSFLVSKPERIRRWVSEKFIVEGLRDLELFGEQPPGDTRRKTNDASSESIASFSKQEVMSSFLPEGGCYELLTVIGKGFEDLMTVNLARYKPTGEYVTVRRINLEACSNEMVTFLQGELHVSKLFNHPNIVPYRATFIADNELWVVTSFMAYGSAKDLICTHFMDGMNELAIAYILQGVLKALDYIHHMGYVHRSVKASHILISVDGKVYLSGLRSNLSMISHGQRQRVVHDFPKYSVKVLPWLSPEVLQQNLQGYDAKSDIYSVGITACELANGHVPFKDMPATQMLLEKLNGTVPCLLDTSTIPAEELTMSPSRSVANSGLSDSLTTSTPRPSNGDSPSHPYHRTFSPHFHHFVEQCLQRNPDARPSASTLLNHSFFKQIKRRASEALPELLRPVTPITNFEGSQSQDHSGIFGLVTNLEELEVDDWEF
T1 sequence (Q9Y376 1-341 partner): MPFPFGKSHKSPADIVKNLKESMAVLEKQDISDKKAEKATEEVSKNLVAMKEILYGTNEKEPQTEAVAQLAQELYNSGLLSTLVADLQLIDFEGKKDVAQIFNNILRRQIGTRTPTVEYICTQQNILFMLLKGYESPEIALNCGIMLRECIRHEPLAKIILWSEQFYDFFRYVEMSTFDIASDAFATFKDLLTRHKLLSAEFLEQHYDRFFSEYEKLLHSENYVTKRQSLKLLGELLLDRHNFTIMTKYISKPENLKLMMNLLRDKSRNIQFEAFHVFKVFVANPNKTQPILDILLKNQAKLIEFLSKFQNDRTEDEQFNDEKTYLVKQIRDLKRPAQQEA
In short: (§1)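 Values show % enzyme activity normalised to DMSO vehicle. They come from one 10 μM compound concentration run twice, at an ATP level of 10 μM.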

[2] = target: T2, LCK2/ICK (Homo sapiens, UniProt Q9UPZ9)
T2 construct: purchased Reaction Biology Corp
T2 sequence (Q9UPZ9 1-632): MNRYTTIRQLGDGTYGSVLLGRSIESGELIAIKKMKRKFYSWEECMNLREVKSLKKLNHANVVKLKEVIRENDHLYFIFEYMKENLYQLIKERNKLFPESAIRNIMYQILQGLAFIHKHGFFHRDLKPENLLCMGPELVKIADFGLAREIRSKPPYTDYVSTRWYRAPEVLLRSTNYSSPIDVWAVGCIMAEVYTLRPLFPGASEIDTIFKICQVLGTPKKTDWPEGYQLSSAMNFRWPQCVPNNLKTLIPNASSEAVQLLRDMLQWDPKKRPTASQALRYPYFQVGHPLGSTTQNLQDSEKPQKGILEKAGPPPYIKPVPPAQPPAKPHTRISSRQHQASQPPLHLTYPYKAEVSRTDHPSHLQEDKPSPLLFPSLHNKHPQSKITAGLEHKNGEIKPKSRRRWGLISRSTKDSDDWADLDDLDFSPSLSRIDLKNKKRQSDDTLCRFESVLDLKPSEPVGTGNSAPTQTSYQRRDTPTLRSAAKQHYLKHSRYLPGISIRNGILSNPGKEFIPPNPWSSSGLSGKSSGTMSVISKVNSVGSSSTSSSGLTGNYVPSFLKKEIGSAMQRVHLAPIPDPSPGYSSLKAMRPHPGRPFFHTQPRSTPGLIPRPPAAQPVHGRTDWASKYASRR
In short: as §1

[3] = target: T3, Haspin (Homo sapiens, UniProt Q8TF76)
T3 construct: purchased Reaction Biology Corp
T3 sequence (Q8TF76 1-798): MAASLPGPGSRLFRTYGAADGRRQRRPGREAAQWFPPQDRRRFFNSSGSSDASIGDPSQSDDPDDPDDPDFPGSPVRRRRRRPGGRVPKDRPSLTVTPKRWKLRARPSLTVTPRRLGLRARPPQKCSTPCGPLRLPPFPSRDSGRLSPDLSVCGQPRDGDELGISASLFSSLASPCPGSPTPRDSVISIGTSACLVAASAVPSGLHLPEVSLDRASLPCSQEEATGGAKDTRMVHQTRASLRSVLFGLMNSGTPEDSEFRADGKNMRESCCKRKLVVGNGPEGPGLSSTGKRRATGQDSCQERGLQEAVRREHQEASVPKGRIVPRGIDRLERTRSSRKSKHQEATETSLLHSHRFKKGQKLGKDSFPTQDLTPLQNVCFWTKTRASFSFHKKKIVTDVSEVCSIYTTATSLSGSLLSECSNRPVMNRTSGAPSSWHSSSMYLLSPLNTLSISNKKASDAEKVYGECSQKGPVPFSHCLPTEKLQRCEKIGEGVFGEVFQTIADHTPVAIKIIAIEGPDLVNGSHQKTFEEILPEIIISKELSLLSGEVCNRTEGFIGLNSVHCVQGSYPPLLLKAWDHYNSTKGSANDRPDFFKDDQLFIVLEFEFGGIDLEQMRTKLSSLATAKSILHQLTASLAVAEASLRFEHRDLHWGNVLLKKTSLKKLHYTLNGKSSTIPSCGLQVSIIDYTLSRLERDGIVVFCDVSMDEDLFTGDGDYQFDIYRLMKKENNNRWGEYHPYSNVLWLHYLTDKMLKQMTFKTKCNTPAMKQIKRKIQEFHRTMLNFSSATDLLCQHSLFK
In short: as §1

[4] = read-out: % Enzyme Activity (relative to DMSO controls) AVG
[5] = read-out: % Enzyme Activity (relative to DMSO controls) Data 1
[6] = read-out: % Enzyme Activity (relative to DMSO controls) Data 2

CC(C)(C)C(=O)N1N=CC[C@H]1c1ccccc1 [GSK′963]
remaining activity at 10 µM [1, 4]: 105%
remaining activity at 10 µM [1, 5]: 105%
remaining activity at 10 µM [1, 6]: 106%
remaining activity at 10 µM [2, 4]: 101%
remaining activity at 10 µM [2, 5]: 100%
remaining activity at 10 µM [2, 6]: 101%
remaining activity at 10 µM [3, 4]: 96.7%
remaining activity at 10 µM [3, 5]: 97.3%
remaining activity at 10 µM [3, 6]: 96.2%
